Where two headings read alike, the source gives them in different places.
What was measured:
liver = conditions: cited from earlier work
[1] = tested on: uterus (ovariectomised rats); assay: Uterus weight after oral treatment of ovariectomised rats (oral estrogen effects, sexual function); format: in vivo; conditions: ovariectomised rat, 10 μg/animal/d p.o., d1 to d7
Source text: The adult female experimental animals (breeder: HSD/WIN:WU) were ovariectomised (Day […]). Treatment with one daily oral application of test substances was started two weeks after ovariectomy. All animals were assigned to groups by randomised approach. The experiment was a block design. All animals were weighed twice, prior to and at the end of the experiment. Start and end of treatment were defined as Day 1 (=d1) or Day 7 (=d7). The animals were sacrificed on Day 8. Several organs (uterus, adrenal glands, liver) were removed and weighed and were passed on in deep-frozen condition (-196° C.) for further investigation.

[2] = Blood level after oral application to ovariectomised rats; format: in vivo; conditions: ovariectomised rat, 10 μg/animal/d p.o., d1 to d7
Experimental: Evidence was provided to hepatic estrogenicity in ovariectomised rats: The adult female experimental animals (breeder: HSD/WIN:WU) were ovariectomised (Day […]). Treatment with one daily oral application of test substances was started two weeks after ovariectomy.
Start and end of treatment were defined as Day 1 (=d1) or Day 7 (=d7). The animals were sacrificed on Day 8. Several organs (uterus, adrenal glands, liver) were removed and weighed and were passed on in deep-frozen condition (-196° C.) for further investigation.
Blood was taken from the retrobulbar plexus prior to treatment (d0) as well as on (d4) and (d8), with the animals etherized. The serum thus obtained was used to determine IGF1, angiotensin I, cholesterol and HDL cholesterol.

[3] = cited from earlier work
angiotensin = conditions: EE 30 μg to 20 μg with 150 μg gestagen (desogestrel), cited from earlier work
[4] = cited from earlier work; remark: listed apart in the source
[5] = 0-24 hours from application, Goldzieher

In the case of `CC/C(=C(/CC)c1ccc(O)cc1)c1ccc(O)cc1` [DES], the “Hepatic estrogenicity, in words” value (liver; oral, compared with conjugated and natural estrogens) is listed as “Even stronger hepatic estrogenicity”.

For `C[C@]12CC[C@@H]3c4ccc(O)cc4CC[C@H]3[C@@H]1CC[C@@H]2O` [Estradiol (E2), estradiol], the Uterus weight [1] is listed as 182 mg, the Blood level [2] is listed as 0.0192 ng/mL (serum) and the “Bioavailability after oral application” value ([3]; in vivo, po) is listed as “tends to be minimised”.

For `C[C@]12CC[C@@H]3c4ccc(O)cc4CC[C@H]3[C@@H]1C[C@@H](O)[C@@H]2O` [Estriol (E3), estriol], the “Bioavailability after oral application” value ([3]; in words) is listed as “tends to be minimised”.

In the case of `C#C[C@]1(O)CC[C@H]2[C@@H]3CCc4cc(O)ccc4[C@H]3CC[C@@]21C` [Ethinyl estradiol (EE), ethinyl estradiol], the Uterus weight [1] is listed as 353 mg, the “Effect of dose reduction on increased angiotensin levels” value (angiotensin; six months) is listed as “marginally reduced values” and the “Effect of dose reduction on increased angiotensin levels” value (angiotensin; three months) is listed as “did not result in reduction”. For the same compound, the Blood level [2] was 0.0289 ng/mL (serum), the “highest AUC recorded” value [4, 5] was 2.121 ng·h/mL and the “lowest AUC” value [4, 5] was 0.284 ng·h/mL. The “Oral bioavailability compared with natural estrogens” value ([4]; human, oral, in words) was “much better in bioavailability”, the “Hepatic estrogenicity, in words” value (liver; in vivo, po) was “Even stronger hepatic estrogenicity” and the “Estrogenic effectiveness in the liver relative to orally administered natural estrogens” value (liver; in vivo) was “eight to ten times as high”.

Compound `CN(C)S(=O)(=O)Oc1ccc2c(c1)CC[C@@H]1[C@@H]2CC[C@]2(C)[C@@H](O)C[C@@H]3C[C@]312` [J 982, 17β-hydroxy-14α,15α-methylene-estra-1,3,5(10)-trien-3-yl N,N-dimethylsulfamate] has a Uterus weight [1] of 193 mg.

`CCN(CC)S(=O)(=O)Oc1ccc2c(c1)CC[C@@H]1[C@@H]2CC[C@]2(C)[C@@H](O)C[C@@H]3C[C@]312` [J 983, 17β-hydroxy-14α,15α-methylene-estra-1,3,5(10)-trien-3-yl N,N-diethylsulfamate] gave a Uterus weight [1] of 349 mg.

With `CCN(CC)S(=O)(=O)Oc1ccc2c(c1)CC[C@@H]1[C@@H]2CC[C@]2(C)[C@@H](O)[C@H](O)C[C@@H]12` [J 984, 16α,17β-dihydroxy-estra-1,3,5(10)-trien-3-yl N,N-diethylsulfamate] the Uterus weight [1] was 246 mg.

Compound `CN(C)S(=O)(=O)Oc1ccc2c(c1)CC[C@@H]1[C@@H]2CC[C@]2(C)[C@@H](O)[C@H](O)C[C@@H]12` [J 989, 16α,17β-dihydroxy-estra-1,3,5(10)-trien-3-yl N,N-dimethylsulfamate] has a Uterus weight [1] of 183 mg.

For `C[C@]12CC[C@@H]3c4ccc(OS(=O)(=O)O)cc4CC[C@H]3[C@@H]1CCC2=O` [estrone sulphate], the “Bioavailability after oral application” value ([3]; in words) is given as “tends to be minimised”.

For `C[C@]12CC[C@@H]3c4ccc(O)cc4CC[C@H]3[C@@H]1CCC2=O` [estrone], the “Bioavailability after oral application” value ([3]; in vivo, po) is given as “tends to be minimised”.
